Test results reported in US20260042731A1, “(2,4-DICHLOROPHENOXY)ACETIC ACID ANALOGS” (CORTEVA AGRISCIENCE LLC, priority 2022, published 2026).
Like-named read-outs stand apart in the source and are kept apart here.

Tests used:
[1] = Volatility of compounds measured by thermogravimetric analysis (TGA); assay type: physicochemical
[2] = test system: weeds (ABUTH, AMATA, AMBEL, CHEAL, ERICA); experiment: Postemergence herbicide evaluation, overall average % weed control across ABUTH, AMATA, AMBEL, CHEAL, ERICA; assay type: in vivo; conditions: post-emergence, average over the five weeds, read-out: Overall Ave % Weed Control; for pest or weed control at 280 g/ha: 280 g ae/ha; for pest or weed control at 560 g/ha: 560 g ae/ha
[3] = test system: glyphosate resistant Conyza canadensis (L.) (ERICA), horseweed; experiment: Postemergence herbicide evaluation, growth of Conyza canadensis (ERICA); assay type: in vivo; conditions: Erigeron canadensis, post-emergence, percent reduction in plant size relative to untreated control, read-out: Ave. ERICA; for pest or weed control at 280 g/ha: 280 g ae/ha; for pest or weed control at 560 g/ha: 560 g ae/ha
[4] = test system: Chenopodium album (CHEAL), common lambsquarters; experiment: Postemergence herbicide evaluation, growth of Chenopodium album (CHEAL); assay type: in vivo; conditions: Chenopodium album, post-emergence, percent reduction in plant size relative to untreated control, read-out: Ave. CHEAL; for pest or weed control at 280 g/ha: 280 g ae/ha; for pest or weed control at 560 g/ha: 560 g ae/ha
[5] = test system: Abutilon theophrasti (ABUTH), velvetleaf; experiment: Postemergence herbicide evaluation, growth of Abutilon theophrasti (ABUTH); assay type: in vivo; conditions: Abutilon theophrasti, post-emergence, percent reduction in plant size relative to untreated control, read-out: AVE. ABUTH; for pest or weed control at 280 g/ha: 280 g ae/ha; for pest or weed control at 560 g/ha: 560 g ae/ha
[6] = test system: Amaranthus rudis (AMATA), tall water hemp; experiment: Postemergence herbicide evaluation, growth of Amaranthus rudis (AMATA); assay type: in vivo; conditions: Amaranthus tuberculatus, post-emergence, percent reduction in plant size relative to untreated control, read-out: Ave. AMATA; for pest or weed control at 280 g/ha: 280 g ae/ha; for pest or weed control at 560 g/ha: 560 g ae/ha
[7] = test system: Ambrosia artemisiifolia (AMBEL), common ragweed; experiment: Postemergence herbicide evaluation, growth of Ambrosia artemisiifolia (AMBEL); assay type: in vivo; conditions: Ambrosia artemisiifolia, post-emergence, percent reduction in plant size relative to untreated control, read-out: AVE. AMBEL; for pest or weed control at 280 g/ha: 280 g ae/ha; for pest or weed control at 560 g/ha: 560 g ae/ha

Cc1cc(OC(=O)COc2ccc(Cl)cc2Cl)n(C)n1 [Compound E6, 1,3-Dimethyl-1H-pyrazol-5-yl 2-(2,4-dichlorophenoxy)acetate]
TGA Data (rate of weight loss, volatility) [1]: 1 µg/min
pest or weed control at 280 g/ha ([2]; 168 h, 7 DAA): 69%
pest or weed control at 560 g/ha ([2]; 168 h, 7 DAA): 73%
pest or weed control at 280 g/ha ([2]; 336 h, 14 DAA): 79%
pest or weed control at 560 g/ha ([2]; 336 h, 14 DAA): 86%
pest or weed control at 280 g/ha ([2]; 504 h, 21 DAA): 82%
pest or weed control at 560 g/ha ([2]; 504 h, 21 DAA): 90%
pest or weed control at 280 g/ha ([3]; 168 h, 7 DAA): 63%
pest or weed control at 560 g/ha ([3]; 168 h, 7 DAA): 65%
pest or weed control at 280 g/ha ([3]; 336 h, 14 DAA): 83%
pest or weed control at 560 g/ha ([3]; 336 h, 14 DAA): 83%
pest or weed control at 280 g/ha ([3]; 504 h, 21 DAA): 96%
pest or weed control at 560 g/ha ([3]; 504 h, 21 DAA): 95%
pest or weed control at 280 g/ha ([4]; 168 h, 7 DAA): 63%
pest or weed control at 560 g/ha ([4]; 168 h, 7 DAA): 70%
pest or weed control at 280 g/ha ([4]; 336 h, 14 DAA): 65%
pest or weed control at 560 g/ha ([4]; 336 h, 14 DAA): 85%
pest or weed control at 280 g/ha ([4]; 504 h, 21 DAA): 58%
pest or weed control at 560 g/ha ([4]; 504 h, 21 DAA): 90%
pest or weed control at 280 g/ha ([5]; 168 h, 7 DAA): 83%
pest or weed control at 560 g/ha ([5]; 168 h, 7 DAA): 83%
pest or weed control at 280 g/ha ([5]; 336 h, 14 DAA): 88%
pest or weed control at 560 g/ha ([5]; 336 h, 14 DAA): 93%
pest or weed control at 280 g/ha ([5]; 504 h, 21 DAA): 96%
pest or weed control at 560 g/ha ([5]; 504 h, 21 DAA): 94%
pest or weed control at 280 g/ha ([6]; 168 h, 7 DAA): 70%
pest or weed control at 560 g/ha ([6]; 168 h, 7 DAA): 75%
pest or weed control at 280 g/ha ([6]; 336 h, 14 DAA): 82%
pest or weed control at 560 g/ha ([6]; 336 h, 14 DAA): 80%
pest or weed control at 280 g/ha ([6]; 504 h, 21 DAA): 70%
pest or weed control at 560 g/ha ([6]; 504 h, 21 DAA): 77%
pest or weed control at 280 g/ha ([7]; 168 h, 7 DAA): 65%
pest or weed control at 560 g/ha ([7]; 168 h, 7 DAA): 73%
pest or weed control at 280 g/ha ([7]; 336 h, 14 DAA): 80%
pest or weed control at 560 g/ha ([7]; 336 h, 14 DAA): 88%
pest or weed control at 280 g/ha ([7]; 504 h, 21 DAA): 93%
pest or weed control at 560 g/ha ([7]; 504 h, 21 DAA): 96%
